Earlier results on one compound are cited in patent US20080241240A1, “COMBINED PHARMACEUTICAL FORMULATION WITH CONTROLLED-RELEASE COMPRISING DIHYDROPYRIDINE CALCIUM CHANNEL BLOCKERS AND HMG-COA REDUCTASE INHIBITORS” (HANALL Pharmaceutical Co., Ltd., priority 2006, published 2008).

For the series the following is noted: orally administered as single pill.

Turning to `CCOC(=O)C1=C(COCCN)NC(C)=C(C(=O)OC)C1c1ccccc1Cl` (stereo not shown) [Amlodipine, 3-ethyl-5-methyl-2-(2-aminoethoxymethyl)-4-(2-chlorophenyl)-1,4-dihydro-6-methyl-3,5-pyridinedicarboxylate], the “remaining, present in blood” value is reported as 60%.
